Reference: publication PMC9649612, “Molecular docking and biochemical validation of (-)-syringaresinol-4-O-β-D-apiofuranosyl-(1→2)-β-D-glucopyranoside binding to an allosteric site in monoamine transporters” (Frontiers in Pharmacology, 2022)

How the values were obtained:
WT-hSERT [1] = target: T1, WT-hSERT (Homo sapiens, UniProt P31645); experiment: APP+ transport (uptake) in HeLa cells expressing WT-hSERT; format: cell-based; settings: 2 μM APP+ 5 min, SAG added 5 min prior, intact HeLa cells
T1 construct: expressed in transfected cells; host or cells: HeLa (ATCC CCL-2), transient, pcDNA3.1
Protocol: (§1) HeLa cells were cultured in Dulbecco’s Modified Eagle’s Medium supplemented with 10% fetal bovine serum, 100 units/ml penicillin, and 100 μg/ml streptomycin at 37°C in a humidified 5% CO2 incubator. Cells were plated in a 6-well culture plate and grown overnight. Cells at ∼70% confluence were transfected with hSERT, hDAT, or hNET cDNA in pcDNA3.1 by lipofectamine 2000. Transfected cells were incubated for 24 h at 37°C with 5% CO2 and then transferred into a 12-well plate placed with polylysine coated slides. After grown for additional 12–16 h, the cells were assayed for APP^+ or ASP^+ fluorescence image acquisition.
(§2) The cells expressing WT or mutants of hSERT, hDAT, or hNET were wet mounted on polylysine coated glass slides in 12-well plates and applied for the indicated treatments. […] The extent of APP^+ accumulated in the cells was determined by confocal imaging analysis. ASP^+ binding to SERT in the cell membrane was measured with digitonin-permeabilized cells ([Li M. et al., 2022a]). […] After removing excess ASP^+ by rapid washing three times, ASP^+ binding was determined by confocal imaging analysis.
(§3) Images were analyzed using Zen Blue software.
(§4) Nonlinear regression fits of experimental and calculated data were performed with Origin (Origin Lab). […]

[2] = target: T2, hSERT I327A (S2 site mutant) (Homo sapiens, UniProt P31645, I327A); experiment: APP+ transport in HeLa cells expressing hSERT mutant I327A; format: cell-based; settings: 2 μM APP+ 5 min, intact HeLa cells, read-out: SAG IC50 for transport
T2 construct: expressed in transfected cells; host or cells: HeLa (ATCC CCL-2), transient, pcDNA3.1
Protocol: (§5) The mutants used for this study were constructed in the WT background carried by the expression plasmids for hSERT, hDAT, or hNET under the control of CMV promotor in pcDNA3.1 vector, respectively. All mutants were generated using the Mut Express II Fast Mutagenesis Kit (Vazyme) and confirmed by full-length DNA sequencing.
as §1, with “Transfected cells were incubated for 24 h at 37°C with 5% CO2 and then transferred into a 12-well plate placed with polylysine coated slides.” left out
as §2
(§6) Images were analyzed using Zen Blue software. […]

[3] = target: T3, hSERT P499G (S2 site mutant) (Homo sapiens, UniProt P31645, P499G); experiment: APP+ transport in HeLa cells expressing hSERT mutant P499G; format: cell-based; settings: 2 μM APP+ 5 min, intact HeLa cells, read-out: SAG IC50 for transport
T3 construct: expressed in transfected cells; host or cells: HeLa (ATCC CCL-2), transient, pcDNA3.1
Protocol: as §5
as §1, with “Transfected cells were incubated for 24 h at 37°C with 5% CO2 and then transferred into a 12-well plate placed with polylysine coated slides.” left out
as §2, §6

[4] = target: T4, hSERT Q562N (S2 site mutant) (Homo sapiens, UniProt P31645, Q562N); experiment: APP+ transport in HeLa cells expressing hSERT mutant Q562N; format: cell-based; settings: 2 μM APP+ 5 min, intact HeLa cells, read-out: SAG IC50 for transport
T4 construct: expressed in transfected cells; host or cells: HeLa (ATCC CCL-2), transient, pcDNA3.1
Protocol: as §5
as §1, with “Transfected cells were incubated for 24 h at 37°C with 5% CO2 and then transferred into a 12-well plate placed with polylysine coated slides.” left out
as §2, §6

[5] = target: T5, hSERT S438T (S1 site mutant) (Homo sapiens, UniProt P31645, S438T); experiment: APP+ transport in HeLa cells expressing hSERT mutant S438T; format: cell-based; settings: 2 μM APP+ 5 min, intact HeLa cells, read-out: SAG IC50 for transport
T5 construct: expressed in transfected cells; host or cells: HeLa
Protocol: as §5
as §1, with “Transfected cells were incubated for 24 h at 37°C with 5% CO2 and then transferred into a 12-well plate placed with polylysine coated slides.” left out
as §2, §6

WT-hSERT [6] = target: T1, WT-hSERT; experiment: ASP+ binding in digitonin-permeabilized HeLa cells expressing WT-hSERT; settings: 10 μM ASP+ 5 min, 25 μg/ml digitonin-permeabilized HeLa cells, read-out: SAG IC50 for binding
Protocol: as §1, §2, §3, §4

[7] = target: T6, hSERT E494Q (S2 site mutant) (Homo sapiens, UniProt P31645, E494Q); experiment: ASP+ binding in digitonin-permeabilized HeLa cells expressing hSERT E494Q; settings: 10 μM ASP+, read-out: SAG IC50 for binding
T6 construct: expressed in transfected cells; host or cells: HeLa (ATCC CCL-2), transient, pcDNA3.1
Protocol: as §5
as §1, with “Transfected cells were incubated for 24 h at 37°C with 5% CO2 and then transferred into a 12-well plate placed with polylysine coated slides.” left out
as §2, §6

[8] = target: T7, hSERT P560G (S2 site mutant) (Homo sapiens, UniProt P31645, P560G); experiment: ASP+ binding in digitonin-permeabilized HeLa cells expressing hSERT P560G; settings: 10 μM ASP+, read-out: SAG IC50 for binding
T7 construct: expressed in transfected cells; host or cells: HeLa (ATCC CCL-2), transient, pcDNA3.1
Protocol: as §5
as §1, with “Transfected cells were incubated for 24 h at 37°C with 5% CO2 and then transferred into a 12-well plate placed with polylysine coated slides.” left out
as §2, §6

[9] = target: T4, hSERT Q562N (S2 site mutant); experiment: ASP+ binding in digitonin-permeabilized HeLa cells expressing hSERT Q562N; settings: 10 μM ASP+, read-out: SAG IC50 for binding
Protocol: as §5
as §1, with “Transfected cells were incubated for 24 h at 37°C with 5% CO2 and then transferred into a 12-well plate placed with polylysine coated slides.” left out
as §2, §6

[10] = target: T8, hDAT F320A (S2 site mutant) (Homo sapiens, UniProt Q01959, F320A); experiment: APP+ transport in HeLa cells expressing hDAT mutant F320A; format: cell-based
T8 construct: expressed in transfected cells; host or cells: HeLa
T8 sequence (Q01959 whole entry F320A): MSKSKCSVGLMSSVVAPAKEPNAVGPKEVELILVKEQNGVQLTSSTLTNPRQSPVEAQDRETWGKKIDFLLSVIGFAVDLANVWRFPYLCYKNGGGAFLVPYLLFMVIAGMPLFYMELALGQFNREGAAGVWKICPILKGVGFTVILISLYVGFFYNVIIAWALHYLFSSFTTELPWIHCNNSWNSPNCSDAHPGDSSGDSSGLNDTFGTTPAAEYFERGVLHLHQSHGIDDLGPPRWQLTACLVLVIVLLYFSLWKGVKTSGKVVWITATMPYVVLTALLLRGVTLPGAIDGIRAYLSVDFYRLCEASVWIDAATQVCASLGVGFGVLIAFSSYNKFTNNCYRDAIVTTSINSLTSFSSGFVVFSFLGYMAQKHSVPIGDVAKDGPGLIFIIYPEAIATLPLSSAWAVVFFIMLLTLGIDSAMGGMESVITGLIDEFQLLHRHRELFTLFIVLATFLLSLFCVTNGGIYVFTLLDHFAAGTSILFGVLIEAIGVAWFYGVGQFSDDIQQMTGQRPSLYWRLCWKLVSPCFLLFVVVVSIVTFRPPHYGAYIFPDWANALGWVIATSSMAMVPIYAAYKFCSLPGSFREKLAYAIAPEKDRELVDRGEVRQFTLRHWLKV
Protocol: as §5
as §1, with “Transfected cells were incubated for 24 h at 37°C with 5% CO2 and then transferred into a 12-well plate placed with polylysine coated slides.” left out
as §2, §6

[11] = target: T9, hDAT A480G (S2 site mutant) (Homo sapiens, UniProt Q01959, A480G); experiment: APP+ transport in HeLa cells expressing hDAT mutant A480G; format: cell-based; settings: intact HeLa cells, read-out: SAG IC50
T9 construct: expressed in transfected cells; host or cells: HeLa
T9 sequence (Q01959 whole entry A480G): as the sequence (Q01959 whole entry F320A) above, with A320F, A480G counted along it
Protocol: as §5
as §1, with “Transfected cells were incubated for 24 h at 37°C with 5% CO2 and then transferred into a 12-well plate placed with polylysine coated slides.” left out
as §2, §6

[12] = target: T10, hDAT W562A (S2 site mutant) (Homo sapiens, UniProt Q01959, W562A); experiment: APP+ transport in HeLa cells expressing hDAT mutant W562A; format: cell-based
T10 construct: expressed in transfected cells; host or cells: HeLa
T10 sequence (Q01959 whole entry W562A): as the sequence (Q01959 whole entry F320A) above, with A320F, W562A counted along it
Protocol: as §5
as §1, with “Transfected cells were incubated for 24 h at 37°C with 5% CO2 and then transferred into a 12-well plate placed with polylysine coated slides.” left out
as §2, §6

[13] = target: T11, hDAT T566A (S2 site mutant) (Homo sapiens, UniProt Q01959, T566A); experiment: APP+ transport in HeLa cells expressing hDAT mutant T566A; format: cell-based
T11 construct: expressed in transfected cells; host or cells: HeLa
T11 sequence (Q01959 whole entry T566A): as the sequence (Q01959 whole entry F320A) above, with A320F, T566A counted along it
Protocol: as §5
as §1, with “Transfected cells were incubated for 24 h at 37°C with 5% CO2 and then transferred into a 12-well plate placed with polylysine coated slides.” left out
as §2, §6

[14] = target: T12, hDAT V152F (S1 site mutant) (Homo sapiens, UniProt Q01959, V152F); experiment: APP+ transport in HeLa cells expressing hDAT mutant V152F; format: cell-based
T12 construct: expressed in transfected cells; host or cells: HeLa
T12 sequence (Q01959 whole entry V152F): as the sequence (Q01959 whole entry F320A) above, with V152F, A320F counted along it
Protocol: as §5
as §1, with “Transfected cells were incubated for 24 h at 37°C with 5% CO2 and then transferred into a 12-well plate placed with polylysine coated slides.” left out
as §2, §6

[15] = target: T13, hDAT S422T (S1 site mutant) (Homo sapiens, UniProt Q01959, S422T); experiment: APP+ transport in HeLa cells expressing hDAT mutant S422T; format: cell-based
T13 construct: expressed in transfected cells; host or cells: HeLa
T13 sequence (Q01959 whole entry S422T): as the sequence (Q01959 whole entry F320A) above, with A320F, S422T counted along it
Protocol: as §5
as §1, with “Transfected cells were incubated for 24 h at 37°C with 5% CO2 and then transferred into a 12-well plate placed with polylysine coated slides.” left out
as §2, §6

[16] = target: T14, hNET Q314A (S2 site mutant) (Homo sapiens, UniProt P23975, Q314A); experiment: APP+ transport in HeLa cells expressing hNET mutant Q314A; format: cell-based; settings: intact HeLa cells, read-out: SAG IC50
T14 construct: expressed in transfected cells; host or cells: HeLa
T14 sequence (P23975 whole entry Q314A): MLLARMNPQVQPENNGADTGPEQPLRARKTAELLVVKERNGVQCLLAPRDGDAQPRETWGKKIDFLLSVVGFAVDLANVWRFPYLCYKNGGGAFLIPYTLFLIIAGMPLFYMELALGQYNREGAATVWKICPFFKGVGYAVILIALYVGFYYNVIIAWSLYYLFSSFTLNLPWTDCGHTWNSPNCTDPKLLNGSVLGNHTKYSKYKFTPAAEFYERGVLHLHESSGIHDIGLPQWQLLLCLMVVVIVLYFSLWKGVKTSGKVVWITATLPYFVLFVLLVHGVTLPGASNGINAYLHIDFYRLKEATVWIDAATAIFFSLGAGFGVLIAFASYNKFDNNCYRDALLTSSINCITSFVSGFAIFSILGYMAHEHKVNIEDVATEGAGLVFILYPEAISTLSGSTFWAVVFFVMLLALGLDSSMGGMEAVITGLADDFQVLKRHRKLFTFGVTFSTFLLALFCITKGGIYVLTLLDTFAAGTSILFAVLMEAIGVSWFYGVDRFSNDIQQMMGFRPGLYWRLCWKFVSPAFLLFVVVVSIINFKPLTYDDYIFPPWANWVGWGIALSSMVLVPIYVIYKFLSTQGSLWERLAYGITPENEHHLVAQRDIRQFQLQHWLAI
Protocol: as §5
as §1, with “Transfected cells were incubated for 24 h at 37°C with 5% CO2 and then transferred into a 12-well plate placed with polylysine coated slides.” left out
as §2, §6

[17] = target: T15, hNET F317A (S2 site mutant) (Homo sapiens, UniProt P23975, F317A); experiment: APP+ transport in HeLa cells expressing hNET mutant F317A; format: cell-based
T15 construct: expressed in transfected cells; host or cells: HeLa
T15 sequence (P23975 whole entry F317A): as the sequence (P23975 whole entry Q314A) above, with A314Q, F317A counted along it
Protocol: as §5
as §1, with “Transfected cells were incubated for 24 h at 37°C with 5% CO2 and then transferred into a 12-well plate placed with polylysine coated slides.” left out
as §2, §6

[18] = target: T16, hNET T474Q (S2 site mutant) (Homo sapiens, UniProt P23975, T474Q); experiment: APP+ transport in HeLa cells expressing hNET mutant T474Q; format: cell-based
T16 construct: expressed in transfected cells; host or cells: HeLa
T16 sequence (P23975 whole entry T474Q): as the sequence (P23975 whole entry Q314A) above, with A314Q, T474Q counted along it
Protocol: as §5, §1
The cells expressing WT or mutants of hSERT, hDAT, or hNET were wet mounted on polylysine coated glass slides in 12-well plates and applied for the indicated treatments. In brief, the cells were washed twice with 500 μl KRH buffer containing 20 mM HEPES, pH 7.4, 120 mM NaCl, 1.3 mM KCl, 2.2 mM CaCl2, 1.2 mM MgSO4, and 0.1% (w/v) glucose. […] Excess APP^+ was then removed by rapid washing three times with 500 μl KRH buffer. The extent of APP^+ accumulated in the cells was determined by confocal imaging analysis. ASP^+ binding to SERT in the cell membrane was measured with digitonin-permeabilized cells ([Li M. et al., 2022a]). […] After removing excess ASP^+ by rapid washing three times, ASP^+ binding was determined by confocal imaging analysis.
as §3
Nonlinear regression fits of experimental and calculated data were performed with Origin (Origin Lab). The statistical analysis given was from multiple experiments. Data with error bars in the figures represent the mean ± SD for at least 10 measurements per condition in one experiment or the mean ± SEM from at least three experiments as indicated, respectively. […]

[19] = target: T17, hNET K541G (S2 site mutant) (Homo sapiens, UniProt P23975, K541G); experiment: APP+ transport in HeLa cells expressing hNET mutant K541G; format: cell-based; settings: intact HeLa cells, read-out: SAG IC50
T17 construct: expressed in transfected cells; host or cells: HeLa
T17 sequence (P23975 whole entry K541G): as the sequence (P23975 whole entry Q314A) above, with A314Q, K541G counted along it
Protocol: as §5
as §1, with “Transfected cells were incubated for 24 h at 37°C with 5% CO2 and then transferred into a 12-well plate placed with polylysine coated slides.” left out
as §2, §6

Substance: (-)-Syringaresinol-4-O-β-D-apiofuranosyl-(1→2)-β-D-glucopyranoside [SAG]
- IC50 (WT-hSERT [1]): 2.54 ± 0.13 µM
- IC50 [2]: 25.5 ± 1.2 µM
- IC50 [3]: 88.1 ± 2.8 µM
- IC50 [4]: 289 ± 11 µM
- IC50 [5]: 10.3 ± 0.49 µM
- IC50 (WT-hSERT [6]): 7.88 ± 0.35 µM
- IC50 [7]: 192 ± 16 µM
- IC50 [8]: 324 ± 28 µM
- IC50 [9]: 450 ± 23 µM
- Decrease in SAG IC50 compared with WT ([10]; hDAT F320A vs WT-hDAT): ~50%
- IC50 ([10]; hDAT F320A, intact HeLa cells, read-out: SAG IC50): 16.8 ± 0.7 µM
- IC50 [11]: 239 ± 14 µM
- Increase in SAG IC50 compared with WT ([12]; hDAT W562A vs WT-hDAT): more than 30 fold
- IC50 ([12]; hDAT W562A, intact HeLa cells, read-out: SAG IC50): > 1000 µM
- Increase in SAG IC50 compared with WT ([13]; hDAT T566A vs WT-hDAT): less than 10 fold
- IC50 ([13]; hDAT T566A, intact HeLa cells, read-out: SAG IC50): 136 ± 6 µM
- Effect of mutation on SAG inhibition potency ([14]; hDAT S1 residue Val152 replaced): little effect
- IC50 ([14]; hDAT V152F (S1), intact HeLa cells, read-out: SAG IC50): 26.6 ± 2.8 µM
- Effect of mutation on SAG inhibition potency ([15]; hDAT S1 residue Ser422 replaced): little effect
- IC50 ([15]; hDAT S422T (S1), intact HeLa cells, read-out: SAG IC50): 24.5 ± 1.4 µM
- IC50 [16]: 4.37 ± 1.06 µM
- Change in SAG inhibition potency compared to WT ([17]; hNET F317A vs WT-hNET): little change
- IC50 ([17]; hNET F317A, intact HeLa cells, read-out: SAG IC50): 36.7 ± 7.6 µM
- Change in SAG inhibition potency compared to WT ([18]; hNET T474Q vs WT-hNET): little change
- Decrease in SAG inhibition potency compared with WT ([18]; hNET T474Q vs WT-hNET): less than 3 folds
- IC50 ([18]; hNET T474Q, intact HeLa cells, read-out: SAG IC50): 49.3 ± 7.9 µM
- IC50 [19]: 79.8 ± 3.3 µM
